Laboratory results taken from patent publication US10227331B2 (priority 2015, dated 2019).

Tests used:
VIM-1 = VIM-1 (Pseudomonas aeruginosa (strain ATCC 15692 / DSM 22644 / CIP 104116 / JCM 14847 / LMG 12228 / 1C / PRS 101 / PAO1), UniProt A0A0F7KYQ8); test: biochemical; details: CCF2-FA substrate, 2 hours at 25° C
Method in brief: (§1)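 Fluorescence assay, CCF2-FA substrate (cephalosporin core linking 7-hydroxycoumarin to fluorescein); inhibitor + MBL + substrate, 2 h, 25° C. IC50 by 4-parameter fit, semi-log plot.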

[1] = tested on: P. aeruginosa expressing IMP-1, efflux− (MB9799); test: Efflux: concentration of MBL inhibitor which restores susceptibility to imipenem; type: cell-based, Pseudomonas aeruginosa; details: imipenem at 2 μg/mL, in the presence of a class A, C, D serine β-lactamase inhibitor closely related to relebactam
Description: (§2) The strain background is Pseudomonas aeruginosa PAO1.

NDM-1 = NDM-1 (Klebsiella pneumoniae, UniProt C7C422); test: biochemical; type: biochemical; details: CCF2-FA substrate, 2 hours at 25° C; read-out: NDM-1 IC50
Method in brief: as §1

IMP-1 = IMP-1 (Serratia marcescens, UniProt P52699); test: biochemical; type: biochemical; details: CCF2-FA substrate, 2 hours at 25° C; read-out: IMP-1 IC50
Method in brief: as §1

[2] = tested on: Escherichia coli expressing NDM-1 (CLB30005, CLB30016); type: cell-based; details: with imipenem 1 μg/ml, 95% inhibition of bacterial growth; for Escherichia coli MITC95: NDM-1 (CLB30016)
Method in brief: (§3)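 Colonies from overnight 35 °C blood-agar cultures were suspended in saline, diluted 1:100 into 1.1× CAMHB and exposed to test compound with or without imipenem at 1 μg/ml. After 22–24 h at 35 °C, absorbance was read to find the concentration restoring imipenem susceptibility.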

[3] = tested on: Serratia marcescens expressing IMP-1 (CL5741); type: cell-based; details: with imipenem 1 μg/ml, 95% inhibition of bacterial growth; for Serratia marcescens MITC95: IMP-1 (CL5741)
Method in brief: as §3

[4] = tested on: Klebsiella pneumoniae expressing VIM-1 (IHMA599644); type: cell-based; details: with imipenem 1 μg/ml, 95% inhibition of bacterial growth; for Klebsiella pneumoniae MITC95: VIM-1 (IHMA599644)
Method in brief: as §3

[5] = tested on: P. aeruginosa expressing IMP-1, efflux+ (MB9798); type: cell-based, Pseudomonas aeruginosa; details: for P. aeruginosa expressing IMP-1, efflux+ (MB9798) MITC95: imipenem at 2 μg/mL, in the presence of a class A, C, D serine β-lactamase inhibitor closely related to relebactam; for Efflux ratio: ratio MITC95 PA_9798/MITC95 PA_9799
Description: as §2

Chain of IMP-1 (P52699 whole entry, looked up, species assumed): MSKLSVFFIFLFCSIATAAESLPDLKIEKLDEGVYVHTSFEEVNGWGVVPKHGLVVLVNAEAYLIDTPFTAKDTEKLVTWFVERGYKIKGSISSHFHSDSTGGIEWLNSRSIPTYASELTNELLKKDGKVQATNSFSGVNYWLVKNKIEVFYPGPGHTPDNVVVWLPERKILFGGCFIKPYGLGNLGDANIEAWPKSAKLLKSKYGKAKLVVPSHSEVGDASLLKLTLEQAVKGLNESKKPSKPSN
Chain of NDM-1 (C7C422 whole entry, looked up, species assumed): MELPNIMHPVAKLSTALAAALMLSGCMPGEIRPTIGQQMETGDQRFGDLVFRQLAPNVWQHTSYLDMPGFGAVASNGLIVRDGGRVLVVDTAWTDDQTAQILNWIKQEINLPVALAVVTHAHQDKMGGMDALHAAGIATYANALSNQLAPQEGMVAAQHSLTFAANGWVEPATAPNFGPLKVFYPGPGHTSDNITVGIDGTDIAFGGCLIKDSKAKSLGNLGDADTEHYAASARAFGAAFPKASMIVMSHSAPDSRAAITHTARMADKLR

Cc1ccc2cccc(-c3ccc(S(=O)(=O)C4CNC4)c(S(N)(=O)=O)c3-c3nnn[nH]3)c2n1.O=C(O)C(F)(F)F [Example 122, 3-((4-(2-methylquinolin-8-yl)-2-sulfamoyl-3-(1H-tetrazol-5-yl)phenyl)sulfonyl)azetidin-1-ium 2,2,2-trifluoroacetate]
IC50 (VIM-1): 0.324 nM
P. aeruginosa expressing IMP-1, efflux− (MB9799) MITC95 [1]: 1.563 µM
IC50 (NDM-1): 0.155 nM
IC50 (IMP-1): 0.57 nM
Escherichia coli expressing NDM-1 (CLB30016) MITC95 [2]: 3.125 µM
Serratia marcescens expressing IMP-1 (CL5741) MITC95 [3]: 3.125 µM
Klebsiella pneumoniae expressing VIM-1 (IHMA599644) MITC95 [4]: 6.25 µM
P. aeruginosa expressing IMP-1, efflux+ (MB9798) MITC95 [5]: 6.25 µM
Efflux ratio [5]: 4.00

NCCS(=O)(=O)c1ccc(-c2cccc3sc(C(=O)O)nc23)c(-c2nn[nH]n2)c1S(N)(=O)=O [Example 88, 4-(4-(2-aminoethylsulfonyl)-3-sulfamoyl-2-(2H-tetrazol-5-yl)phenyl)benzo[d]thiazole-2-carboxylic acid]
IC50 (VIM-1): 0.158 nM
P. aeruginosa expressing IMP-1, efflux− (MB9799) MITC95 [1]: 3.125 µM
IC50 (NDM-1): 0.0522 nM
IC50 (IMP-1): 0.144 nM
Escherichia coli expressing NDM-1 (CLB30016) MITC95 [2]: 1.563 µM
Serratia marcescens expressing IMP-1 (CL5741) MITC95 [3]: 6.25 µM
Klebsiella pneumoniae expressing VIM-1 (IHMA599644) MITC95 [4]: 12.5 µM
P. aeruginosa expressing IMP-1, efflux+ (MB9798) MITC95 [5]: 6.25 µM
Efflux ratio [5]: 2.00

NS(=O)(=O)c1c(S(=O)(=O)C2CNC2)ccc(-c2cccc3[nH]cnc23)c1-c1nn[nH]n1 [Example 332, 6-(Azetidin-3-ylsulfonyl)-3-(1H-benzo[d]imidazol-4-yl)-2-(2H-tetrazol-5-yl)benzenesulfonamide]
IC50 (VIM-1): 0.275 nM
P. aeruginosa expressing IMP-1, efflux− (MB9799) MITC95 [1]: 1.563 µM
IC50 (NDM-1): 0.124 nM
IC50 (IMP-1): 0.557 nM
Escherichia coli MITC95 [2]: 0.7813 µM
Serratia marcescens MITC95 [3]: 1.563 µM
Klebsiella pneumoniae MITC95 [4]: 3.125 µM
P. aeruginosa expressing IMP-1, efflux+ (MB9798) MITC95 [5]: 6.25 µM
Efflux ratio [5]: 4.00

Nc1ncc(-c2ccc(S(=O)(=O)C3CNC3)c(S(N)(=O)=O)c2-c2nn[nH]n2)c2cccnc12 [Example 248, 3-(8-Amino-1,7-naphthyridin-5-yl)-6-(azetidin-3-ylsulfonyl)-2-(2H-tetrazol-5-yl)benzenesulfonamide]
IC50 (VIM-1): 0.556 nM
P. aeruginosa expressing IMP-1, efflux− (MB9799) MITC95 [1]: 1.563 µM
IC50 (NDM-1): 0.566 nM
IC50 (IMP-1): 2.09 nM
Escherichia coli MITC95 [2]: 3.125 µM
Serratia marcescens MITC95 [3]: 1.563 µM
Klebsiella pneumoniae MITC95 [4]: 3.125 µM
P. aeruginosa expressing IMP-1, efflux+ (MB9798) MITC95 [5]: 6.25 µM
Efflux ratio [5]: 4.00

NS(=O)(=O)c1c(S(=O)(=O)C2CNC2)ccc(-c2ccc(NS(=O)(=O)C3CC3)cc2)c1-c1nn[nH]n1 [Example 244, 4-(Azetidin-3-ylsulfonyl)-4′-(cyclopropanesulfonamido)-2-(2H-tetrazol-5-yl)-[1,1′-biphenyl]-3-sulfonamide]
IC50 (VIM-1): 0.112 nM
P. aeruginosa expressing IMP-1, efflux− (MB9799) MITC95 [1]: 1.563 µM
IC50 (NDM-1): 0.156 nM
IC50 (IMP-1): 0.144 nM
Escherichia coli expressing NDM-1 (CLB30016) MITC95 [2]: 3.125 µM
Serratia marcescens expressing IMP-1 (CL5741) MITC95 [3]: 3.125 µM
Klebsiella pneumoniae expressing VIM-1 (IHMA599644) MITC95 [4]: 6.25 µM
P. aeruginosa expressing IMP-1, efflux+ (MB9798) MITC95 [5]: 6.25 µM
Efflux ratio [5]: 4.00

Nc1cc(-c2cc(-c3ccc(S(=O)(=O)C4CNC4)c(S(N)(=O)=O)c3-c3nnn[nH]3)ccn2)ccn1 [Example 311, 3-(2′-amino-[2,4′-bipyridin]-4-yl)-6-(azetidin-3-ylsulfonyl)-2-(1H-tetrazol-5-yl)benzenesulfonamide]
IC50 (VIM-1): 0.315 nM
P. aeruginosa expressing IMP-1, efflux− (MB9799) MITC95 [1]: 1.563 µM
IC50 (NDM-1): 0.921 nM
IC50 (IMP-1): 2.32 nM
Escherichia coli MITC95 [2]: 3.125 µM
Serratia marcescens MITC95 [3]: 1.563 µM
Klebsiella pneumoniae MITC95 [4]: 3.125 µM
P. aeruginosa expressing IMP-1, efflux+ (MB9798) MITC95 [5]: 50 µM
Efflux ratio [5]: 31.99
